According to US8986687B2, “Compounds inhibiting CD95 signaling for the treatment of pancreatic cancer” (Deutsches Krebsforschungszentrum, priority 2009, dated 2015):

Test system: ERK pathway / phosphorylation of ERK
Experiment: Western blotting of ERK phosphorylation in pancreatic cells
Type: cell-based
Conditions: PANC1 and Colo357 cells
Text: Phosphorylation of AKT and ERK is shown in PanD3, PANC1 and Colo357 cells upon treatment with different concentrations of CD95L-T4 at the indicated time points. P: phosphorylated; T: total.
A) Effect of the PI3K and MEK inhibitors (LY2940092 and PD98059 respectively) on CD95-induced phosphorylation of AKT and ERK is shown in PANC1 and Colo357. Inhibition of PI3K enhances ERK phosphorylation. P: phosphorylated; T: total.
It has been known that low concentrations of CD95L are sufficient to efficiently stimulate the non-apoptotic pathways downstream of CD95, being those pathways inhibited by higher concentrations. […]
Knockdown experiments were performed by transient transfection with Lipofectamine 2000™ (Invitrogen Life Technologies) following the instruction manual. […] After transient transfection with the different siRNAs cells were cultured for 72 h before treated with CD95LT4 (20 ng/ml), migration was analyzed 36 h after treatment with a two dimensional migration assay. Knockdown efficiency was controlled by quantitative real-time PCR.
Proteins were transferred from polyacrylamide gels to nitrocellulose membranes by electroblotting. […] The HRP signal was detected by incubation with ECL solution and consecutive exposure to Amersham Hyperfim X-ray films Protein extraction and immunoblotting was performed as previously described. […]

O=c1cc(N2CCOCC2)oc2c(-c3ccccc3)cccc12 [LY2940092]
effect of PI3K inhibition on CD95-induced ERK phosphorylation: enhances
